Values quoted from earlier work as cited in patent US20230321241A1, “CANCER PEPTIDE VACCINE AND METHOD OF PREPARING THE SAME” (BrightPath Biotherapeutics Co., Ltd., priority 2020, published 2023).

Tested on: PD-L1-Positive Non-Small-Cell Lung Cancer
Conditions: pembrolizumab alone in similar subjects; cited from earlier work

## pembrolizumab: anti-PD-1 antibody (Merck & Co., Inc.)
  response rate: 45%
